Laboratory results taken from patent US10577363B2, “Substituted piperidine compounds” (EPIZYME, INC., priority 2014, dated 2020).

What was measured:
[1] = target: T1, SMYD3 (Homo sapiens (Human), UniProt Q9H7B4); experiment: SMYD3 biochemical assay (SPA, 3H-SAM methylation of MEKK2 protein substrate); conditions: read-out: SMYD3 Biochem IC50*
Method in brief: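 Native full-length human SMYD3 (E. coli-expressed, tags removed) was preincubated with compound for 30 min at room temperature in 25 mM Tris-Cl pH 8.0, 1 mM TCEP, 0.005% BSG, 0.005% Tween 20. Reaction was started with 3H-SAM plus GST-MEKK2, quenched with 100 uM unlabeled SAM, and read by SPA scintillation counting.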

[2] = target: T1, SMYD3; experiment: SMYD3 cell assay (Trimethyl-MEKK2 In-Cell Western in 293T/17 cells); type: cell-based; conditions: read-out: SMYD3 Cell IC50*
Method in brief: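 In-Cell Western ratio of trimethyl-Lys260 MEKK2 to anti-flag signal; percent inhibition from DMSO and maximum-inhibition controls, IC50 by non-linear regression, triplicates.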

T1 sequence (Q9H7B4 whole entry): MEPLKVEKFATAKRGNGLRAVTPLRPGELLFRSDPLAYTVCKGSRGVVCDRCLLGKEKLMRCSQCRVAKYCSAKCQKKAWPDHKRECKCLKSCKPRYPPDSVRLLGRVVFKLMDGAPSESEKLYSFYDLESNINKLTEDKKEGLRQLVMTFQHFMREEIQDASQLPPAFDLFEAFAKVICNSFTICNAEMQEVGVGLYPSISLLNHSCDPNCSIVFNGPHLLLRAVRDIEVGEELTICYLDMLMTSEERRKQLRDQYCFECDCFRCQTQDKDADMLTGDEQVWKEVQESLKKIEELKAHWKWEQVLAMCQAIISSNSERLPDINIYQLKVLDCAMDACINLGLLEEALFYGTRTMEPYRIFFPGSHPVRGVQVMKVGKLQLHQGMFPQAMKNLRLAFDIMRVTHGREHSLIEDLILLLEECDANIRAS

In the case of `O=C(N[C@H]1C[C@H]2CC[C@@H](C1)N2S(=O)(=O)N1CC2CCC(C1)N2Cc1ccccc1)c1cc(C2CC2)on1` [compound 904, N-((1R,3r,5S)-8-((8-benzyl-3,8-diazabicyclo[3.2.1]octan-3-yl)sulfonyl)-8-azabicyclo[3.2.1]octan-3-yl)-5-cyclopropylisoxazole-3-carboxamide], the IC50 [1] is reported as 16.9 nM and the IC50 [2] is reported as 395 nM.
In the case of `C[C@H](NC1CCN(S(=O)(=O)N2CC[C@H](NC(=O)c3cc(C4CC4)on3)C[C@@H]2C)CC1)c1ccccc1` [compound 905, 5-cyclopropyl-N-((2S,4S)-2-methyl-1-((4-(((S)-1-phenylethyl)amino)piperidin-1-yl)sulfonyl)piperidin-4-yl)isoxazole-3-carboxamide], the IC50 [1] is reported as 17.1 nM and the IC50 [2] is reported as 331 nM.
With `O=C(N[C@H]1C[C@H]2CC[C@@H](C1)N2S(=O)(=O)N1CCC(N2CCCC2)CC1)c1cc(C2CC2)on1` [compound 906, 5-cyclopropyl-N-((1R,3r,5S)-8-((4-(pyrrolidin-1-yl)piperidin-1-yl)sulfonyl)-8-azabicyclo[3.2.1]octan-3-yl)isoxazole-3-carboxamide] the IC50 [1] was 17.1 nM and the IC50 [2] was 229 nM.
With `CC1CN(S(=O)(=O)N2[C@@H]3CC[C@H]2C[C@@H](NC(=O)c2cc(C4CC4)on2)C3)C(C)CN1` (stereo partly drawn) [compound 907, 5-cyclopropyl-N-((1R,3r,5S)-8-((2,5-dimethylpiperazin-1-yl)sulfonyl)-8-azabicyclo[3.2.1]octan-3-yl)isoxazole-3-carboxamide] the IC50 [1] was 17.7 nM and the IC50 [2] was 238 nM.
For `C[C@H]1C[C@@H](NC(=O)c2cc(C3CC3)on2)CCN1S(=O)(=O)N1CCC(NCCN2CCOCC2)CC1` [compound 908, 5-cyclopropyl-N-((2S,4S)-2-methyl-1-((4-((2-morpholinoethyl)amino)piperidin-1-yl)sulfonyl)piperidin-4-yl)isoxazole-3-carboxamide], the IC50 [1] was 18.4 nM and the IC50 [2] was 253 nM.
In the case of `C[C@H]1C[C@@H](NC(=O)c2cc(C3CC3)on2)CCN1S(=O)(=O)[C@@H]1CCCNC1` [compound 910, 5-cyclopropyl-N-((2S,4S)-2-methyl-1-(((R)-piperidin-3-yl)sulfonyl)piperidin-4-yl)isoxazole-3-carboxamide], the IC50 [1] is reported as 19 nM and the IC50 [2] is reported as 186 nM.
`CC(C)c1cc(C(=O)N[C@H]2C[C@H]3CC[C@@H](C2)N3S(=O)(=O)N2CCC(N)CC2)no1` [compound 911, N-((1R,3r,5S)-8-((4-aminopiperidin-1-yl)sulfonyl)-8-azabicyclo[3.2.1]octan-3-yl)-5-isopropylisoxazole-3-carboxamide] was tested, and the IC50 [1] was 20.5 nM and the IC50 [2] was 144 nM.
In the case of `O=C(N[C@H]1C[C@H]2CC[C@@H](C1)N2S(=O)(=O)N1CCC(NCCCN2CCOCC2)CC1)c1cc(C2CC2)on1` [compound 912, 5-cyclopropyl-N-((1R,3r,5S)-8-((4-((3-morpholinopropyl)amino)piperidin-1-yl)sulfonyl)-8-azabicyclo[3.2.1]octan-3-yl)isoxazole-3-carboxamide], the IC50 [1] is reported as 20.9 nM and the IC50 [2] is reported as 316 nM.
`C[C@H]1C[C@@H](NC(=O)c2cc(C3CC3)on2)CCN1S(=O)(=O)[C@H]1CCCNC1` [compound 913, 5-cyclopropyl-N-((2S,4S)-2-methyl-1-(((S)-piperidin-3-yl)sulfonyl)piperidin-4-yl)isoxazole-3-carboxamide] showed an IC50 [1] of 21.6 nM and an IC50 [2] of 255 nM.
`O=C(N[C@H]1C[C@H]2CC[C@@H](C1)N2S(=O)(=O)N1CC2CCC(C1)N2CCCC(F)(F)F)c1cc(C2CC2)on1` [compound 914, 5-cyclopropyl-N-((1R,3r,5S)-8-((8-(4,4,4-trifluorobutyl)-3,8-diazabicyclo[3.2.1]octan-3-yl)sulfonyl)-8-azabicyclo[3.2.1]octan-3-yl)isoxazole-3-carboxamide] gave an IC50 [1] of 22.9 nM and an IC50 [2] of 299 nM.
`C[C@H]1CN(S(=O)(=O)N2[C@@H]3CC[C@H]2C[C@@H](NC(=O)c2cc(C4CC4)on2)C3)[C@@H](C)CN1` [compound 915, 5-cyclopropyl-N-((1R,3S,5S)-8-(((2S,5S)-2,5-dimethylpiperazin-1-yl)sulfonyl)-8-azabicyclo[3.2.1]octan-3-yl)isoxazole-3-carboxamide] was tested, and the IC50 [1] was 23.2 nM and the IC50 [2] was 231 nM.
In the case of `COCCN(C)C1CCN(S(=O)(=O)N2[C@@H]3CC[C@H]2C[C@@H](NC(=O)c2cc(C4CC4)on2)C3)CC1` [compound 916, 5-cyclopropyl-N-((1R,3r,5S)-8-((4-((2-methoxyethyl)(methyl)amino)piperidin-1-yl)sulfonyl)-8-azabicyclo[3.2.1]octan-3-yl)isoxazole-3-carboxamide], the IC50 [1] is reported as 23.3 nM and the IC50 [2] is reported as 247 nM.
In the case of `CN(CCN1CCCC1)C1CCN(S(=O)(=O)N2[C@@H]3CC[C@H]2C[C@@H](NC(=O)c2cc(C4CC4)on2)C3)CC1` [compound 917, 5-cyclopropyl-N-((1R,3r,5S)-8-((4-(methyl(2-(pyrrolidin-1-yl)ethyl)amino)piperidin-1-yl)sulfonyl)-8-azabicyclo[3.2.1]octan-3-yl)isoxazole-3-carboxamide], the IC50 [1] is reported as 24.9 nM and the IC50 [2] is reported as 379 nM.
For `O=C(N[C@H]1C[C@H]2CC[C@@H](C1)N2S(=O)(=O)N1CCC(NCCC(F)(F)F)CC1)c1cc(C2CC2)on1` [compound 918, 5-cyclopropyl-N-((1R,3r,5S)-8-((4-((3,3,3-trifluoropropyl)amino)piperidin-1-yl)sulfonyl)-8-azabicyclo[3.2.1]octan-3-yl)isoxazole-3-carboxamide], the IC50 [1] was 25 nM and the IC50 [2] was 148 nM.
Work on `O=C(N[C@H]1C[C@H]2CC[C@@H](C1)N2S(=O)(=O)C[C@@H]1CCCCN1)c1cc(C2CC2)on1` [compound 919, 5-cyclopropyl-N-((1R,3S,5S)-8-((((S)-piperidin-2-yl)methyl)sulfonyl)-8-azabicyclo[3.2.1]octan-3-yl)isoxazole-3-carboxamide] yielded an IC50 [1] of 25.4 nM and an IC50 [2] of 243 nM.
For `O=C(N[C@H]1C[C@H]2CC[C@@H](C1)N2S(=O)(=O)[C@H]1CC[C@@H](NCCN2CCOCC2)CC1)c1cc(C2CC2)on1` [compound 920, 5-cyclopropyl-N-((1R,3R,5S)-8-(((1s,4S)-4-((2-morpholinoethyl)amino)cyclohexyl)sulfonyl)-8-azabicyclo[3.2.1]octan-3-yl)isoxazole-3-carboxamide], the IC50 [1] was 26.6 nM and the IC50 [2] was 499 nM.
Work on `CN(CCO)C1CCN(CCS(=O)(=O)N2[C@@H]3CC[C@H]2C[C@@H](NC(=O)c2cc(C4CC4)on2)C3)C1` (stereo partly drawn) [compound 921, 5-cyclopropyl-N-((1R,3r,5S)-8-((2-(3-((2-hydroxyethyl)(methyl)amino)pyrrolidin-1-yl)ethyl)sulfonyl)-8-azabicyclo[3.2.1]octan-3-yl)isoxazole-3-carboxamide] yielded an IC50 [1] of 27.7 nM and an IC50 [2] of 373 nM.
In the case of `O=C(N[C@H]1C[C@H]2CC[C@@H](C1)N2S(=O)(=O)N1CCC(NCCN2CCCC2)CC1)c1cc(C2CC2)on1` [compound 922, 5-cyclopropyl-N-((1R,3r,5S)-8-((4-((2-(pyrrolidin-1-yl)ethyl)amino)piperidin-1-yl)sulfonyl)-8-azabicyclo[3.2.1]octan-3-yl)isoxazole-3-carboxamide], the IC50 [1] is reported as 28.1 nM and the IC50 [2] is reported as 282 nM.
`C[C@@H](NC1CCN(S(=O)(=O)N2[C@@H]3CC[C@H]2C[C@@H](NC(=O)c2cc(C4CC4)on2)C3)CC1)c1ccccc1` [compound 923, 5-cyclopropyl-N-((1R,3R,5S)-8-((4-(((R)-1-phenylethyl)amino)piperidin-1-yl)sulfonyl)-8-azabicyclo[3.2.1]octan-3-yl)isoxazole-3-carboxamide] gave an IC50 [1] of 28.6 nM and an IC50 [2] of 310 nM.
`O=C(N[C@H]1C[C@H]2CC[C@@H](C1)N2S(=O)(=O)N1CCC(NCc2c(F)cccc2F)CC1)c1cc(C2CC2)on1` [compound 924, 5-cyclopropyl-N-((1R,3r,5S)-8-((4-((2,6-difluorobenzyl)amino)piperidin-1-yl)sulfonyl)-8-azabicyclo[3.2.1]octan-3-yl)isoxazole-3-carboxamide] gave an IC50 [1] of 28.9 nM and an IC50 [2] of 670 nM.
For `CC(C)C1CN(S(=O)(=O)N2[C@@H]3CC[C@H]2C[C@@H](NC(=O)c2cc(C4CC4)on2)C3)CCN1` (stereo partly drawn) [compound 925, 5-cyclopropyl-N-((1R,3r,5S)-8-((3-isopropylpiperazin-1-yl)sulfonyl)-8-azabicyclo[3.2.1]octan-3-yl)isoxazole-3-carboxamide], the IC50 [1] was 29.9 nM and the IC50 [2] was 340 nM.
For `CN1CCC[C@@H](S(=O)(=O)N2[C@@H]3CC[C@H]2C[C@@H](NC(=O)c2cc(C4CC4)on2)C3)C1` [compound 926, 5-cyclopropyl-N-((1R,3R,5S)-8-(((R)-1-methylpiperidin-3-yl)sulfonyl)-8-azabicyclo[3.2.1]octan-3-yl)isoxazole-3-carboxamide], the IC50 [1] was 30 nM and the IC50 [2] was 209 nM.
With `C[C@H](NC1CCN(S(=O)(=O)N2[C@@H]3CC[C@H]2C[C@@H](NC(=O)c2cc(C4CC4)on2)C3)CC1)c1ccccc1` [compound 927, 5-cyclopropyl-N-((1R,3S,5S)-8-((4-(((S)-1-phenylethyl)amino)piperidin-1-yl)sulfonyl)-8-azabicyclo[3.2.1]octan-3-yl)isoxazole-3-carboxamide] the IC50 [1] was 30.9 nM and the IC50 [2] was 403 nM.
Compound `CC(C)NC1CCN(S(=O)(=O)N2[C@@H]3CC[C@H]2C[C@@H](NC(=O)c2cc(C4CC4)on2)C3)CC1` [compound 928, 5-cyclopropyl-N-((1R,3r,5S)-8-((4-(isopropylamino)piperidin-1-yl)sulfonyl)-8-azabicyclo[3.2.1]octan-3-yl)isoxazole-3-carboxamide] has an IC50 [1] of 36.2 nM and an IC50 [2] of 512 nM.
Work on `NCc1ccc(S(=O)(=O)N2[C@@H]3CC[C@H]2C[C@@H](NC(=O)c2cc(C4CC4)on2)C3)cc1` [compound 929, N-((1R,3r,5S)-8-((4-(aminomethyl)phenyl)sulfonyl)-8-azabicyclo[3.2.1]octan-3-yl)-5-cyclopropylisoxazole-3-carboxamide] yielded an IC50 [1] of 36.8 nM and an IC50 [2] of no less than 10000 nM.
